# According to patent US6913748B2, “Cross-linkers with high reactivity and solubility and their use in the preparation of conjugates for targeted delivery of small molecule drugs” (Immunogen, Inc., priority 2002, dated 2005):
# Tests used:
# N901 antibody with DM1 = experiment: Conjugation (disulfide exchange) of linker-modified N901 antibody with DM1; design: species or system murine; conditions: pH 7.4; 1.1-fold molar excess of DM1 per linker; compared with SPP-modified antibody
# Protocol: SPP or SSNPP linker was dissolved in ethanol at a concentration of approximately 10 mM. Antibody was dialyzed into buffer A (50 mM KPi, 50 mM NaCl, 2 mM EDTA, pH 6.5). For the linker reaction, the antibody was at 8 mg/ml, and 7 equivalents of linker were added while stirring in the presence of 5% (v/v) ethanol. The reaction was allowed to proceed at ambient temperature for 90 minutes. Unreacted linker was removed from the antibody by Sephadex G25 gel filtration using a Sephadex G25 column equilibrated with Buffer A at pH 6.5 or 150 mM potassium phosphate buffer containing 100 mM NaCl, pH 7.4 as indicated. For the SPP linker, the extent of modification was assessed by release of pyridine-2-thione using 50 mM DTT and measuring the absorbance at 343 nm as described below (ε343=8080 M^−1 cm^−1 for free pyridine-2-thione). For SSNPP, modification was assessed directly by measuring the absorbance at 325 nm (ε325=10,964 M^−1 cm^−1 for the 4-nitropyridyl-2-dithio group linked to antibody). […] For DML, the extent of drug conjugation to antibody was assessed by measuring A252 and A280 of the conjugate as described below. […]
# Calculating Ab and DM1 component concentrations of Ab-DM1. […] The components are quantified using the following algebraic expressions which account for the contribution of each component at each wavelength (CAb is the molar concentration of Ab and CD is the molar concentration of DM1): […]
# [1] = Solubility of cross-linkers in water / aqueous solutions; assay type: physicochemical
# [2] = Unconjugated (free) drug by reverse phase HPLC analysis of the conjugate sample; conditions: N901-DM1 conjugate, 1.7-fold DM1
# Protocol: (§1) The increased efficiency of conjugation using the SSNPP linker is accomplished without compromise in the monomeric character of the conjugate and in the amount of unconjugated (free) drug associated with the antibody conjugate. SEC analysis is used to determine the amount of monomer, dimer, trimer, or higher molecular weight aggregates. The level of unconjugated drug was measured by reverse phase HPLC analysis of the conjugate sample. The percent free drug for either reaction was less than 2%. In addition, shorter conjugation reaction times are possible with SSNPP compared with SPP (5), which may decrease loss of some antibodies that are sensitive to prolonged exposure to organic solvent required in the conjugation reaction. Shorter reaction times should also decrease drug loss due to DM1 dimerization, which is a competing side reaction during conjugation. The resulting increases in yield and reduced side reactions should further contribute to reduced DM1 requirements.
# [3] = SEC analysis of conjugate (monomer, dimer, trimer, higher molecular weight aggregates); assay type: physicochemical; conditions: N901-DM1 conjugate; conjugation at pH 7.4, 2 hours, 1.7-fold DM1
# Protocol: as §1
Compound,time course of the reaction of DM1 with modified antibody (FIG. 8) (N901 antibody with DM1),solubility in water / aqueous solutions [1],"% free drug ([2]; conjugation at pH 6.5, 2 hours) [%]","% free drug ([2]; conjugation at pH 7.4, 2 hours) [%]",SEC Analysis Dimer [3] [%],SEC Analysis HMW [3] [%],SEC Analysis Monomer [3] [%],SEC Analysis Trimer [3] [%]
"CC(CCC(=O)ON1C(=O)CC(S(=O)(=O)O)C1=O)SSc1ccc([N+](=O)[O-])cn1 (centres unmarked) [SSNPP, N-Sulfosuccinimidyl 4-(5-nitro-2-pyridyldithio)-pentanoate]",considerably faster,highly water-soluble,0.9,0.8,6.3,0.1,91.9,0.6
"CC(CCC(=O)ON1C(=O)CCC1=O)SSc1ccccn1 (centres unmarked) [SPP, reference compound]",–,–,1.9,1.8,4.9,0.2,93.6,0.4
